Test [1] addresses Protein A purified IgG (rabbit antibodies to diacyl hydrazines). Kind of test: Indirect immunoassay (inhibition of purified IgG binding to RH2703-BSA coating antigen). The following applies: indirect assay; for IC50: RH2703-BSA coating antigen, absorbance at 410 nm; for Cross reactivity: IC50 of RH5992 / IC50 of analog x 100. The text has this:
(§1) As used herein the term "IC50 " is defined as the concentration of the inhibitor required to reduce the absorbance to one-half the absorbance measured when no inhibitor was present. This determination is accomplished by plotting the percent (%) activity remaining versus the concentration of the inhibitor where the percent (%) activity remaining is given by:
(§2) % activity=(Ao -Ai /Ao)×100
(§3) where Ao is the measured absorbance when no inhibitor is present and Ai is the measured absorbance at the i^th concentration of inhibitor. The percent inhibition is then given by the relationship 100-(% activity).
The percent cross reactivity was derived by the equation: […]
where IC50,5992 is the IC50 concentration for RH5992 as determined above and IC50,analog is the IC50 concentration of the analog, i.e., RH2703, RH2651, and RH0345.
(§4) Sensitivity in ng is calculated from the concentration of the inhibitor determined from regression analysis of the standard deviations of the replicate analyses of the standard concentrations as described in the equation: […]
(§5) where S is the sensitivity in ng, Yint is the Y-intercept of the regression line from the standard deviations of the replicate analyses in absorbance units, m is the slope of the regression line in absorbance units per ng/ml and V is the volume of sample applied to the microtiter plate in ml.
RH2703-BSA was used as the coating antigen. The concentration required to give a readable response (0.3-0.5 absorbance units @ 410 nm) in the presence of the minimum quantity of antigen (RH2703) was optimized in the presence of a constant amount of protein A purified IgG (10 μl of a 20 μg/ml solution, 100 ng/well) by a checkerboard type assay (see Voller et al, Bull of World Health Organization, 53, 35 (1976)). The concentration of the Protein A purified IgG had been previously optimized in the presence of a constant amount of coating antigen (RH2703-BSA, 100 μl of a 10 μg/ml solution) to give a readable response to the minimum amount of RH5992.
Antibody concentration was optimized to be approximately 20 μg/ml (100 ng per micro well) and the coating antigen was optimized to be 25 ng/ml or 2.5 ng per micro well. When converted to a molar basis and assuming a hapten/protein binding ratio of 55, the hapten is in a three-fold molar excess of the IgG added.
The percent inhibition for RH2703, RH2651, RH5992, RH0345 and RH2485 were determined to the protein IgG in the presence of the optimized concentration of RH2703-BSA coating antigen. Each test substance was assayed at seven concentrations ranging from no test substance 0 ng/ml to 1000 ng/ml. The assay at each concentration was replicated seven times. Antigen negative and antibody negative wells provided negative controls while KLH/anti-KLH wells were used as positive controls.
Serial dilutions of the test substance stock solutions were made with coating buffer containing 0.1% TWEEN 20 polysorbate to give 1000 ng/ml, 100 ng/ml, 10 ng/ml, 1 ng/ml, 0.1 ng/ml, and 0.01 ng/ml assay concentrations. Coating buffer w/0.1% TWEEN 20 polysorbate was used as the 0 ng/ml assay concentration. The test substance assay concentrations (190 μl each) were incubated with 10 μl of the protein A IgG ([…]) for one hour at room temperature. After the incubation period, 100 μl of the test substance-IgG mixture was transferred to the appropriate microtiter well. The microtiter wells had been previously coated with the optimized concentration of RH2703-BSA and the excess protein binding sites were blocked with 0.3 ml of a 1% BSA solution in coating buffer. The plates were incubated for an additional hour at room temperature.
After the second incubation the plates were washed and goat, anti-rabbit immunoglobulin conjugated to alkaline phosphatase (0.6 mg reconstituted with 1 ml 50% glycerol and subsequently diluted with 1:5000 with blocking solution Pierce Chemical Co) was added. The plates were incubated, washed and PNPP substrate added as described in Example 5. […]

Test [2] has as its system ^2651 IgG (coating antibody). In words: Direct assay (competition with 2651-HRP for immobilized ^2651 IgG coating antibody). The note with it: for IC50: 2651-HRP label, absorbance at 450 nm; for Cross reactivity, RH2651: relative to RH2651; for Cross reactivity, RH5992: relative to RH5992. It counts as binding, rabbit.
Excerpt: as §1, §2, §3, §4, §5
A microplate was coated with ^2651 IgG. Starting with column 1, 100 μl of 10 μg/ml ^2651 IgG were added to each well and 1:2 serial dilutions made across the plate. The plate was sealed and stored at 4° C. until ready to use. After emptying, the plate was washed with 0.01% Tween 20 in PBS and blocked with 1% BSA in PBS for about 1 hour at room temperature. After blocking, the plate was emptied and 150 μl PBS added to each well. Then 50 μl of 2651-HRP dilutions were added down the plate starting with 10 μg/ml and continuing with 1:2 dilutions down the plate. After a 1 hour room temperature incubation, the plate was washed as before and 150 μl 1-Step® Slow-TMB (peroxidase substrate from Pierce Chemical Co.) was added to each well. After one hour development, 150 μl of 1N H2 SO4 was added to stop the reaction and the absorbance of each well measured at 450 nm with the Dynatech MR5000 Microplate Reader. Controls included wells with no coating antibody and wells in which no 2651-HRP were added. A ^2651 IgG coating antibody concentration of 0.625 μg/ml and a 2561-HRP concentration of 1.25 μg/ml were determined to be the optimum concentration for use with 1-Step® Slow-TMB substrate.
The wells of a microplate were coated with 100 μl each of 0.625 μg/ml ^2651 IgG. One row was left uncoated as a control. The plate was kept at 4° C. overnight. The following day the plate was washed with 0.01% Tween 20 polysorbate in PBS and blocked with 1% BSA in PBS for at least 30 minutes. Standard solutions of RH5992, RH2651, RH2703, and RH2485 were made from 1 mg/ml stock solutions. Standard solutions of RH0345 were prepared from a 0.1 ng/ml, 0.5 ng/ml, 1 ng/ml, 5 ng/ml, 10 ng/ml, 50 ng/ml, and 100 ng/ml. After the blocking lo solution was emptied, 150 μl of the standards were added to the appropriate wells. For the zero control 150 μl of PBS was added. After a 45 minute incubation at room temperature, 50 μl of 1.25 μg/ml 2651-HRP were added to each well and the plate agitated to mix the contents. […] After incubation for 45 minutes at room temperature, the plate was washed as before and 150 μl 2651-HRP was added to each well and the plate agitated to mix the contents. […] After incubation for 45 minutes at room temperature, the plate was washed as before and 150 μl Step 1® Slow TMB added to each well. After 2 hours at room temperature, 150 μl 1N H2 SO4 was added to each well and the absorbance read at 450 nm with the Dynatech MR5000 Microplate Reader.
FIG. 16a illustrates a typical curve generated from the assay. The linear portion of the curve is visualized between 0.01 ng/ml and 10 ng/ml. A typical standard curve in the linear range of the assay is illustrated by FIG. 16b using inverse absorbances to generate a positive slope. The limit of detection was calculated as 0.096 ng/ml and the sensitivity calculated as 0.005 ng for RH5992.

Here are results for 5 compounds from patent US5948406A, “Immunogens, antibodies formed therefrom, and coating antigens useful in a diacylhydrazine immunoassay method” (Rohm and Haas Company, priority 1997, dated 1999).

By IC50 is commonly meant the concentration needed to halve the response being measured.

In brackets after ≈: the same amount, converted by molar mass.

As for `CC(C)(C)N(NC(=O)c1ccc(Cl)cc1)C(=O)c1ccccc1` [RH0345], in test [1], the half-inhibitory concentration (IC50) is 6.5 ng/mL and the Cross reactivity is reported as 9%. Further, in test [2], the half-inhibitory concentration (IC50) worked out at 16.94 ng/mL (≈ 0.0512 µM); the “Cross reactivity, RH2651” value came to 6.9%; the “Cross reactivity, RH5992” value is listed as 21.5%.

As to `COc1cccc(C(=O)NN(C(=O)c2cc(C)cc(C)c2)C(C)(C)C)c1C` [RH2485], the IC50 in test [1] was 0.05 ng/mL. For the same compound, in test [2], the IC50 is 4.64 ng/mL (≈ 0.0126 µM); the “Cross reactivity, RH2651” value is listed as 25%; the “Cross reactivity, RH5992” value is given as 78.4%.

Take `Cc1cc(C)cc(C(=O)N(NC(=O)c2ccc(C(=O)O)cc2)C(C)(C)C)c1` [RH2651]: in test [1], the IC50 turned out to be 1.59 ng/mL and the Cross reactivity turned out to be 38%. In test [2], the IC50 is 1.17 ng/mL (≈ 0.00318 µM); the “Cross reactivity, RH2651” value was 100%; the “Cross reactivity, RH5992” value came to 311%.

Turning to `Cc1cc(C)cc(C(=O)N(NC(=O)c2ccc(CC(=O)O)cc2)C(C)(C)C)c1` [RH2703], in test [1], the IC50 was found to be 1.13 ng/mL and the Cross reactivity worked out at 54%. In addition, in test [2], the IC50 is 2.10 ng/mL (≈ 0.00549 µM); the “Cross reactivity, RH2651” value is 56%; the “Cross reactivity, RH5992” value was found to be 173%.

`CCc1ccc(C(=O)NN(C(=O)c2cc(C)cc(C)c2)C(C)(C)C)cc1` [RH5992]: in test [1], the IC50 was 0.61 ng/mL and the Cross reactivity was 100%. Further, in test [2], the IC50 came to 3.64 ng/mL (≈ 0.0103 µM); the “Cross reactivity, RH2651” value is 32%; the “Cross reactivity, RH5992” value was found to be 100%.
